# According to BindingDB's records for doi:10.1016/j.ejmech.2021.113780 (Shandong University, 2021):
# Assay: Inhibition of capsid protein in HBV infected in human HepDES19 cells assessed as inhibition of viral replication incubated for 3 days by strand preferential qPCR analysis
row,SMILES,EC50 [µM]
1,CCOC(=O)C1=C(CN2CC3(CC2=O)CN(C(=O)OC(C)(C)C)C3)NC(c2nccs2)=NC1c1ccc(F)cc1Br (centres undefined),13.3
2,CCOC(=O)C1=C(CN2CCC3(CCN(C(=O)OC(C)(C)C)C3)C2=O)NC(c2nccs2)=NC1c1ccc(F)cc1Br (centres undefined),5.17
3,CCOC(=O)C1=C(CN2CC3(CCN(C(=O)OC(C)(C)C)C3)CC2=O)NC(c2nccs2)=NC1c1ccc(F)cc1Br (centres undefined),10
4,CCOC(=O)C1=C(CN2CCC3(CNC(=O)C3)C2)NC(c2nccs2)=NC1c1ccc(F)cc1Br (centres undefined),2.6
5,CCOC(=O)C1=C(CN2CCC3(CC2)CNC(=O)C3)NC(c2nccs2)=NC1c1ccc(F)cc1Br (centres undefined),3.8
6,CCOC(=O)C1=C(CN2CCC3(CC2)CNC3=O)NC(c2nccs2)=NC1c1ccc(F)cc1Br (centres undefined),1.17
7,CCOC(=O)C1=C(CN2CCC3(CC(=O)N(Cc4ccccc4)C3=O)C2)NC(c2nccs2)=NC1c1ccc(F)cc1Br (centres undefined),2.1
8,CCOC(=O)C1=C(CN2CCC3(CC2)OCCO3)NC(c2nccs2)=NC1c1ccc(F)cc1Br (centres undefined),0.2
9,CCOC(=O)C1=C(CN2CCC3(CC2)CN(C(=O)OC(C)(C)C)C3)NC(c2nccs2)=NC1c1ccc(F)cc1Br (centres undefined),10.4
10,CCOC(=O)C1=C(CN2CCC3(CCN(C(=O)OC(C)(C)C)C3)C2)NC(c2nccs2)=NC1c1ccc(F)cc1Br (centres undefined),4.83
11,CCOC(=O)C1=C(CN2CCC3(C2)CN(C(=O)OC(C)(C)C)C3)NC(c2nccs2)=NC1c1ccc(F)cc1Br (centres undefined),8.83
12,CCOC(=O)C1=C(CN2CCC3(CCNC3=O)CC2)NC(c2nccs2)=NC1c1ccc(F)cc1Br (centres undefined),3.43
13,CCOC(=O)C1=C(CN2CCC3(CC2)CC(=O)NC3=O)NC(c2nccs2)=NC1c1ccc(F)cc1Br (centres undefined),0.68
14,Nc1ccn([C@@H]2CS[C@H](CO)O2)c(=O)n1 [Epivir],0.37
